# Source: paper PMC9446078 (Frontiers in Endocrinology, 2022)
# Structures can show the parent of a compound that is named as a salt. Where two headings read alike, the source gives them in different places.
# Columns and labels:
# [1] = target: T1, human recombinant aldose reductase (Homo sapiens, UniProt P15121); experiment: Aldose reductase inhibition assay (spectrophotometric, glyceraldehyde substrate); assay type: biochemical; settings: recombinant enzyme, DL-glyceraldehyde substrate, pH 6.2, 37°C
# T1 construct: made in house; host or cells: Escherichia coli
# Description: Recombinant human aldose reductase was purified from bacterial cultures. Enzyme from expression cultures was extracted and purified essentially as described previously ([12]) with the exception that affinity chromatography over AffiGel Blue (Bio-Rad) was used as a final purification step.
# AR activity was assayed according to the method described in the literature ([13]). The assay mixture in 1 ml contained 50 μM potassium phosphate buffer, pH 6.2, 0.4 mM lithium sulfate, 5 μM 2-mercapto ethanol, 10 μM DL-glyceraldehyde, 0.1 μM NADPH, and enzyme preparation (recombinant enzyme). Appropriate blanks were employed for corrections. The assay mixture was incubated at 37°C and initiated by the addition of NADPH at 37°C. The change in absorbance at 340 nm due to NADPH oxidation was followed in a Cary Bio 100 spectrophotometer.
# The percent of inhibition with a test compound was calculated considering that the AR activity in the absence of an inhibitor was 100%. The concentration of the test sample giving 50% inhibition (IC50) was then estimated.
# [2] = tested on: Ea.hy926 (human endothelial cells); experiment: Scratch assay, endothelial cell migration under high glucose; assay type: cell-based
# Description: High blood glucose levels hamper the migration of human fibroblasts, endothelial cells, and keratinocytes that impair wound healing ([16]–[20]). […] The detailed protocol and cytotoxicity results are provided in the Supplementary File. An actively growing culture of HFF-1 (human dermal fibroblasts), Ea.hy926 (human endothelial cells), and HaCaT (human keratinocytes) cell lines in Dulbecco’s modified Eagle’s medium containing 25 mM glucose supplemented with 10% fetal bovine serum was prepared. The cells were counted through a hemocytometer and were seeded at a density of 0.08 × 10^6 (HFF-1), 0.1 × 10^6 (Ea.hy926), and 0.2 × 10^6 (HaCaT Cells) cells/well/ml of culture medium. The plates were incubated overnight followed by serum starvation for 24 h. Scratch wounds were made in a confluent monolayer by making a straight scratch in the center of the well using a sterile 200-µl pipette microtip. […] The kinetics of migration of the cells in the wound was recorded by phase-contrast microscopy. The experiment was carried out in duplicate cells for each concentration.
# [3] = MTT cytotoxicity in HaCaT; assay type: cell-based, human; settings: human, HaCaT cells, 48 h, read-out: % Cytotoxicity w.r.t. untreated cells
# Description: (§1) 1. HaCaT, HFF-1 and Ea.hy926 cells were counted and plated in 96 well plates at the density corresponding to 5 X 10^3 cells/well/180 μl of cell growth medium.
# (§2) 2. The above cells were then incubated overnight under growth conditions of 37°C, 95 % Humidity, 5 % CO2.so as to allow the cell recovery and exponential growth.
# (§3) 3. Following overnight incubation, the above cells were serum starved in DMEM (containing 25 mM glucose) supplemented with […] for 24 h.
# (§4) 5. The Ea.hy926 cells were then incubated for 24 h and HaCaT and HFF-1 cells were incubated for 48 h in CO2 incubator at 37 °C, 5 % CO2 and 95 % humidity.
# (§5) 6. Following incubation, the plates were taken out and 20 μl of 5 mg/ml of MTT 3-(4,5-dimethythiazol-2-yl)-2,5-diphenyl tetrazolium bromide solution was added to all the wells followed by additional incubation for 3 h at 37 °C. The supernatant was aspirated and 150 μl of DMSO was added to each well to dissolve formazan crystals. The absorbance of each well was then read at 540 nm using Synergy HT micro plate reader.
# (§6) 7. The percentage cytotoxicity at each tested concentration was calculated using the following formula:
# (§7) % Cytotoxicity = (1-X/R)*100
# HaCaT cells = experiment: MTT cytotoxicity in HaCaT; assay type: cell-based, human; settings: all tested concentrations (0.01 to 1000 μM), <30% = non-cytotoxic
# Description: as §1, §2, §3, §4, §5, §6, §7
# [4] = Toxicokinetics in miniature swine; assay type: in vivo, Hanford miniature swine; settings: for Cmax: read-out: Cmax; for Tmax: read-out: Tmax
# Description: A total of 40 Hanford miniature swine (20 male and 20 female) divided into four treatment groups were used for this study. A 12-week topical application of Galnobax 20% was carried out in the miniature swine wound healing model with twice-daily dosing. Six wounds (10 cm^2 each) of partial thickness were created on the dorsal region of all animals. Four wounds of each animal received twice-daily topical doses of either the vehicle or Galnobax gel, and the remaining two sites served as untreated comparative control wounds. Each group has four male and female miniature swine for the assessments and one each for the recovery period as given in Table 1 . Safety parameters in terms of ECG, clinical pathology, wound site evaluation, and toxicokinetics were performed during the study.
# [5] = both sexes, Hanford, pig, blood, topical or ocular, 400 mg, Day 1, Group 2 swine, topical 400 mg Galnobax Gel, mean
# [6] = both sexes, Hanford, pig, blood, topical or ocular, 400 mg, Week 12, Group 2 swine, topical 400 mg Galnobax Gel BID, mean
smiles,measurement,setting,value
COC(=O)CCc1ccc(OCC(O)CNC(C)C)cc1 (stereo not drawn) [Esmolol hydrochloride],IC50,[1],150 µM
same,migration of endothelial cells,"[2]; 1 and 10 µM, compared with control, high glucose",enhanced the migration
same,migration of endothelial cells,[2]; 100 and 500 µM compared with 1 and 10 µM,lower migration
same,"cytotoxicity at 48 h, 0.01 µM",[3]; 0.01 μM,-19.2%
same,"cytotoxicity at 48 h, 0.1 µM",[3]; 0.1 μM,-8.02%
same,"cytotoxicity at 48 h, 1 µM",[3]; 1 μM,-6.93%
same,"cytotoxicity at 48 h, 10 µM",[3]; 10 μM,-14.8%
same,"cytotoxicity at 48 h, 50 µM",[3]; 50 μM,-18.1%
same,"cytotoxicity at 48 h, 100 µM",[3]; 100 μM,-18.5%
same,"cytotoxicity at 48 h, 500 µM",[3]; 500 μM,16.2%
same,"cytotoxicity at 48 h, 1000 µM",[3]; 1000 μM,18.3%
same,cytotoxicity,HaCaT cells,non-cytotoxic
same,concentration at 8 hr,"[4]; both sexes, Hanford, pig (miniature swine), blood, after first topical dose of Galnobax Gel 400 mg, below the quantitation limit, read-out: blood concentration by the second daily dose (8 hr)",< 5 ng/mL
same,AUC(0-t),[4]; [5],18.7 ng·h/mL
same,Cmax,[4]; [5],30.3 ng/mL
same,Tmax,[4]; [5],18 min
same,AUC(0-t),[4]; [6],17.5 ng·h/mL
same,AUC from 0 to 8 h,"[4]; both sexes, Hanford, pig, blood, topical or ocular, 400 mg, Week 12, Group 2 swine, topical 400 mg Galnobax Gel BID, mean, read-out: AUC0-8",35.4 ng·h/mL
same,Cmax,[4]; [6],140 ng/mL
same,Tmax,[4]; [6],22.8 min
same,accumulation after 12 weeks of twice-daily topical application,"[4]; miniature swine, topical Galnobax",no apparent accumulation
